Measured values: patent US7601494B2, “Method of screening candidate compounds for susceptibility to biliary excretion” (The University of North Carolina at Chapel Hill, priority 1999, dated 2009)

Assays:
Mrp3 [1] = assay: Immunoblot analysis of Mrp3 expression in siRNA-treated SCRH; type: cell-based, rat; conditions: vs siFL-transfected and non-transfected cells
Experimental: (§1) HepG2 cells were maintained in Dulbecco's modified Eagle's medium/F-12 plus 10% FBS. Rat hepatocytes were isolated from male Wistar rats (220-300g) by in situ collagenase perfusion (Annaert et al., Drug Metab Dispos 29:1277-1283, 2001). Cells were seeded at a density of 1.5×10^6 cells per well onto polystyrene 6-well plates pre-coated with rat tail type I collagen; a top layer of gelled collagen was overlaid 24 hr after plating. Rat hepatocyte cultures were maintained in Dulbecco's modified Eagle's medium supplemented with 0.1 μM dexamethasone and 0.1% ITS culture supplement (6.25 mg/mL insulin, 6.25 mg/mL transferrin, 6.25 μg/mL selenous acid, 5.35 mg/mL linoleic acid, and […]). Medium was changed every 24 hr.
(§2) HepG2 cells were seeded at a density of 2×10^5 cells per well onto 12-well plates 24 hr before transfection. A mixture of 100 ng firefly luciferase expression plasmid (PGL3-FL) and 100 ng Renilla luciferase expression plasmid (PRL-TK) and various amounts of firefly luciferase siRNA were used per well. Transfections of SCRH were performed at 20 hr after plating, unless specifically indicated. siRNA (2 μg unless specified) was used per well in 6-well plates. siRNA and DNA were formulated for transfection using […]™ transfection reaction kit (QIAGEN Inc. Valencia, Calif. USA). Briefly, siRNA was condensed in Enhancer EC at a ratio of 1:2 (μg of total RNA and/or DNA : μl of Enhancer), and formulated with TransMessenger at a ratio of 1:4 (μg of RNA and /or DNA: μl of TransMessenger) and then incubated with cells. For transfections of HepG2 cells, medium was changed after an overnight incubation with siRNA. For transfections of SCRH, cells were incubated with siRNA for 4 hr and then were overlaid with collagen. siRNA delivery into hepatocytes was more efficient before overlay of the top collagen layer. The effect of transfection was examined 48 hr later.
(§3) Cells were harvested 48 hr post transfection and lysed in 1% SDS, 1 mM EDTA plus COMPLETE™ protease inhibitor cocktail (Roche Diagnostics, Mannheim, Germany). The protein concentration of the clear cell lysate was determined with the BCA Protein Assay Reagent Kit (Pierce Biotech, Inc. Rockford, Ill.). […] of total protein per lane was resolved by electrophoresis on NuPAGE 4-12% Bis-Tris Gel (Invitrogen Life Technology, Carlsbad, Calif. USA) and were transferred onto polyvinylidone difluoride membranes. The following antibodies were used to probe the membranes: anti-Mrp2 (M2111-6, Alexis Biochemicals, San Diego, Calif. USA); anti-Mrp3 (kind gift from Dr. Yuichi Sugiyama); anti-Radixin (Chemicon International, Inc. Temecula, Calif. USA), anti-β-actin (MAB1501, Chemicon).

SCRH = assay: Lactate dehydrogenase activity assay of culture medium of SCRH; type: cell-based, rat; conditions: after three days in culture, mean±SEM
Experimental: Prior to the functional studies, cell culture medium was assayed for lactate dehydrogenase activity, an intracellular enzyme whose leakage into extracellular medium is inversely related to cell viability. Lactate dehydrogenase activity was assayed with kit 500-C (Sigma Diagnostics, St. Louis, Mo. USA) utilizing lactate dehydrogenase-catalyzed reduction of pyruvate to lactate, subsequent conjugation of remaining pyruvate with 2,4-dinitrophenylhydrazine, and spectrophotometric detection (λ=500 nm) of the pyruvate-2,4-dinitrophenylhydrazone conjugate at alkaline pH (Cabaud and Wroblewski, Am. J. Clin. Pathol. 30:234-236,1958).

Mrp2 = assay: Immunoblot analysis of Mrp2 expression in siRNA-treated SCRH; type: cell-based, rat; conditions: vs siFL-transfected and non-transfected cells
Experimental: as §1, §2, §3

Mrp3 [2] = molecular target: T1, Mrp3 (Rattus norvegicus, UniProt O88563); assay: Assessment of Mrp3 function with CDF disposition in siMrp3-treated SCRH (30 min washout); type: cell-based
T1 construct: endogenous in cells; host or cells: sandwich-cultured primary hepatocytes of male Wistar rats
T1 sequence (O88563 whole entry): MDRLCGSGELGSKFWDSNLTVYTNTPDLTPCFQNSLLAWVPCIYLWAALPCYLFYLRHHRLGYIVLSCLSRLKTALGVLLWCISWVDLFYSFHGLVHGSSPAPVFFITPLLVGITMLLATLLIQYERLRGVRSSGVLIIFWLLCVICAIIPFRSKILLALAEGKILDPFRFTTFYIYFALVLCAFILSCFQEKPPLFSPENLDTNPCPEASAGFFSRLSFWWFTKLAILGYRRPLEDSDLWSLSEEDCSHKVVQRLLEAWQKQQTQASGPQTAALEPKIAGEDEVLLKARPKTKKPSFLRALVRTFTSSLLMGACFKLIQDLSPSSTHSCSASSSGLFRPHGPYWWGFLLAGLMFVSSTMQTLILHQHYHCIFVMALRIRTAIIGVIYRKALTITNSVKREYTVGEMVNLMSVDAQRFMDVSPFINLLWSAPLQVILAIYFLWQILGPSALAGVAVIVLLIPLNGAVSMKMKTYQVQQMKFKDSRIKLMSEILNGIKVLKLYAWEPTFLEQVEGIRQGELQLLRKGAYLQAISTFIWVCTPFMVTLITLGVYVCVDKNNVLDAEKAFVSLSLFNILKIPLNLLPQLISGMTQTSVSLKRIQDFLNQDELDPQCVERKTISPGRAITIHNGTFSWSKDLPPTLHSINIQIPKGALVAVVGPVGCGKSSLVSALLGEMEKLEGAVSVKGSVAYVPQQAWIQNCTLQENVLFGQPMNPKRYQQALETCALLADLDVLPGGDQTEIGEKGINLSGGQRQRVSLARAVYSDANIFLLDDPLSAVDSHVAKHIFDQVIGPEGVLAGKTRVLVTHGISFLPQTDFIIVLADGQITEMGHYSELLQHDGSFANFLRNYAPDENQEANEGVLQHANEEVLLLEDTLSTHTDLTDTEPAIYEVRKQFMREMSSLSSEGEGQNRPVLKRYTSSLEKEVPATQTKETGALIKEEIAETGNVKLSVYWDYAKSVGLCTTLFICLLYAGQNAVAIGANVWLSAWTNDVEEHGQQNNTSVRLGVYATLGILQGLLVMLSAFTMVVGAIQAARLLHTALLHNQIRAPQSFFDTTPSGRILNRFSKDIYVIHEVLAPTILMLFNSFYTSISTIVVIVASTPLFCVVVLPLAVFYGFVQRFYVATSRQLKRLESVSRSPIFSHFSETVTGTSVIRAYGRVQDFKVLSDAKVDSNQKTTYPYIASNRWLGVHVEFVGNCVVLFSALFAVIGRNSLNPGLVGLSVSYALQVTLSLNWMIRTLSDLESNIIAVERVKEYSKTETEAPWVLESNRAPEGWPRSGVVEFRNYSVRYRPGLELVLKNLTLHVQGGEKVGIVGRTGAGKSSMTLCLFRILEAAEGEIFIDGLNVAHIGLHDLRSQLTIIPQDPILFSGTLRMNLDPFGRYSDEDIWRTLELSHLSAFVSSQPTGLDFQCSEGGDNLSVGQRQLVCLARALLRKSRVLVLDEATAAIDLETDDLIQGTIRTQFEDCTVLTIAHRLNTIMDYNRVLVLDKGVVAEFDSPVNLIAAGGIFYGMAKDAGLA
Experimental: Cells were rinsed twice with Hanks' balanced salt solution (HBSS, 2 mL, 37° C.) and incubated (10 min, 1.5 mL, 37° C.) with 2 μM CDF diacetate (Molecular Probes, Eugene, Oreg. USA), and were then rinsed twice with cold HBSS (2 mL, 4° C.). Cell images were taken with a Axiovert 100TV inverted microscope. Accumulation of CDF in cells+bile canaliculi and cells only was assessed in SCRH pre-incubated (10 min, 2 mL, 37° C.) with standard HBSS and Ca^2+-free HBSS, respectively (Liu et al., J. Pharmacol. Exp. Ther. 289:1592-1599, 1999). SCRH were subsequently incubated with CDF diacetate (10 min, 2 mL, 37° C.). In siMrp2-treated SCRH, cells were then rinsed four times with cold HBSS (2 mL, 4° C.) and lysed (1 mL, 0.5% TritonX-100 in phosphate-buffered saline). In siMrp3-treated SCRH, following incubation with CDF diacetate, cells were rinsed four times with warm HBSS (2 mL, 37° C.) and were incubated with HBSS (30 min, HBSS changed every 10 min, 2 mL, 37° C.) to allow time for intracellular CDF to undergo appreciable basolateral excretion prior to rinsing the SCRH four times with cold HBSS and lysing the cells (as above). CDF fluorescence in lysate was quantified with fluorescence spectrophotometry (λex=485 nm, λem=[…]); protein concentration was determined with the BCA method kit (as above).

Substance: siMrp3: siRNA targeting rat Mrp3, GGUCCAAGGACCUGCCUCCCA (SEQ ID NO: 6), nucleotides 1950-1970 of Mrp3 cDNA (listed as RNA, chemistry not given here)
- Mrp3 protein expression (in words) (Mrp3 [1]): a decrease in Mrp3 protein expression
- lactate dehydrogenase activity (SCRH): 87±3 % non-transfected control SCRH
- expression of Mrp2 (in words) (Mrp2): no change in expression of Mrp2
- increase of biliary excretion index of CDF (Mrp3 [2]; transfected SCRH, after 30 min washout, vs control): ~60%
- biliary excretion index of CDF (Mrp3 [2]; transfected SCRH, after 30 min washout, control 36.2%): 57.5%
- CDF accumulation in cells only (Mrp3 [2]; transfected SCRH, after 30 min washout, non-transfected control 15.6±4.0): 13.7±2.2 pmol/mg protein/10 min
- CDF accumulation in cells+bile canaliculi (Mrp3 [2]; transfected SCRH, after 30 min washout, non-transfected control 24.4±4.3): 32.3±2.5 pmol/mg protein/10 min
- CDF fluorescence in canalicular networks (in words) (Mrp3 [2]; vs siFL-transfected or non-transfected cells): more intense
